Columns and labels:
[1] = test system: blood brain barrier (rat brain); experiment: Evans Blue accumulation in rat brain after alternating electric fields; format: in vivo, rats
Excerpt: A set of in vivo experiments on rats was also run to quantify the increase in vessel permeability caused by exposure to the alternating electric fields. These experiments used Evans Blue (EB) dye, which is an azo dye that has a very high affinity for serum albumin (molecule size ˜69 kDa). Because of its large molecule size, serum albumin will ordinarily not be able to get past the BBB.
This was accomplished by shaving each rat's head, positioning a first pair of capacitively coupled electrodes on the top and bottom of the rat's head, and positioning a second pair of capacitively coupled electrodes on the left and right sides of the rat's head. A 100 kHz AC voltage was then applied between the top and bottom electrodes for 1 second, followed by a 100 kHz AC voltage applied between the right and left electrodes for 1 second, in a repeating sequence.
Under the conditions indicated in Table 1 and for the times indicated on Table 1, EB was injected intravenously into the tail vein under anesthesia (Once injected, EB immediately binds to Albumin), and the EB was allowed to circulate for 2 hours in all cases. The following steps were then performed: (a) intracardiac perfusion with saline; (b) brains are sliced in four pieces with a brain slicer; (c) pieces were photographed to localize staining and weighted; (d) EB extraction after tissue homogenization with TCA 50% (1:3) and centrifuge and (e) EB quantification at 610 nm. Results are given as μg EB per g tissue.
During the experiment, two animals from group 2 and one animal from group 4 were excluded (disrupted treatment, failure to inject EB into the tail vein). There were no differences between the animals treated with alternating electric fields (groups 1 and 2) and therefore these animals were grouped together. Similarly, there were no differences between sham heat and control animals (groups 3 and 4) and therefore these animals were grouped together.
EB accumulation in these four specific sections was then measured. In addition, a computer simulation was performed to determine the field strength in each of these four sections. […]

[2] = test system: blood brain barrier (rat brain); experiment: DCE-MRI contrast agent accumulation in rat brain; format: in vivo, rats
Experimental: Yet another set of in vivo experiments was performed using Dynamic Contrast Enhanced MRI (DCE-MRI) with intravenous injection of Gadolinium contrast agent (Gd-DTPA, Magnetol, MW 547). In these experiments, test rats were treated with 100 kHz alternating electric fields for 72 h, and control rats were not treated with alternating electric fields for the same period of time. After this 72 h period, the alternating electric field was turned off, the rats were anesthetized, and a series of 60 T1w MRI scans (each of the scans having a duration of 28 seconds) was acquired. The gadolinium contrast agent was injected into the rat's tail vein during the 7th of these 60 scans.
The image analysis for each rat included (1) determining a baseline for each voxel by calculating the mean of the first six T1w MRI scans for each voxel (i.e., the scans prior to the injection of the gadolinium); (2) computing voxel by voxel, the percent signal change (i.e., gadolinium accumulation) over time relative to the baseline; (3) segmenting the brain into anterior, middle, and posterior segments; (4) generating for each of the three segments the mean percent signal change with respect to the baseline over all the voxels in the respective segment and then (5) averaging 4 consecutive time points (i.e. 4 scans) together. Finally, the data from all of the rats within any given group were averaged together. […]

Compound	average EB accumulation in the rat brain, averaged over all four sections 1-4 ([1]; 100 kHz fields 72 hours vs sham heat/control, p<0.05)	EB accumulation, sections 1, 2 (frontal cerebrum) ([1]; 100 kHz fields 72 h vs sham heat/control, EB i.v., circulated 2 hours, sections where field strength was highest)	EB accumulation, more posterior sections (3, 4) ([1]; 100 kHz fields 72 h vs sham heat/control, EB i.v., circulated 2 hours, sections where field strength was lower)	contrast agent accumulation in the brain tissue (DCE-MRI percent signal change) ([2]; 100 kHz fields 72 h (n=6) vs control rats (n=3), most pronounced in posterior brain)	contrast agent accumulation in the brain tissue (DCE-MRI percent signal change) ([2]; 100 kHz fields 72 hours followed by 96 hours without fields (n=7) vs control+96h (n=3))
Cc1cc(-c2ccc(/N=N/c3ccc4c(S(=O)(=O)O)cc(S(=O)(=O)O)c(N)c4c3O)c(C)c2)ccc1/N=N/c1ccc2c(S(=O)(=O)O)cc(S(=O)(=O)O)c(N)c2c1O [EB, Evans Blue]	higher accumulation	statistically significant increase	smaller increase (that was not statistically significant)	–	–
O=C([O-])CN(CCN(CC(=O)[O-])CC(=O)O)CCN(CC(=O)[O-])CC(=O)O.[Gd+3] [contrast agent, Gd-DTPA]	–	–	–	significantly higher	not significantly different

Source: patent US12290654B2, “Using alternating electric fields to increase permeability of the blood brain barrier” (Novocure GmbH, priority 2018, dated 2025)
